The source of these data is patent publication US10799521B2, “Use of icaritin in preparing medicament for preventing or treating hematocytopenia” (Lunan Pharmaceutical Group Corporation, priority 2013, dated 2020).

Details of data set [1]: species or system Kunming mice. The settings on record: mouse, in vivo. As to the method: Mice ascites tumor s180 cells were conventionally incubated in 1640 culture medium, at 37° C., 5% CO2, and passaged once every two days in average. The cells in the logarithmic growth phase were prepared into a single-cell suspension having a density of 3.0×10^7 cells/ml with normal saline, which was injected into the abdominal cavities of mice under sterile conditions. Seven days after inoculation, significant swelling of the abdominal cavities of mice can be seen. As this time, the mice were executed by cervical vertebra luxation, put into a beaker containing 75% ethanol and soaked for 2-3 minutes. The sterilized mice were placed into an ultraclean bench, and the abdomens were exposed. The ascites was drawn with a sterile syringe and put into a sterile reagent bottle for further use. The above ascites was counted with trypan blue, diluted with normal saline to adjust to 2.0×10^7 cells/ml, and inoculated at the right armpit of the mice with 0.2 ml for each mouse.
The inoculated mice were randomly divided into 6 groups, with 10 animals in each group and half male and half female.
Docetaxel and icaritin were administered by tail intravenous injection with an administration volume of 10 ml/kg for each. Tegafur, Gimeracil and Oteracil Potassium Capsules was intragastrically administered with an administration volume of 40 ml/kg. Each group was administered once a day for totally 10 days. During the test, the animals were observed every day for their food and water uptake, survival conditions and behaviors, and measured for their body weights every day. After the test was ended, the mice were anaesthetized and anatomized. Blood was collected from abdominal aorta for routine blood test, and the total number of white blood cells, the total number of platelets and the total number of neutrophils were determined.

For data set [2], the system named is tumor-bearing mice (mice ascites tumor s180 cells). Nature of the data set: Effect on chemotherapy-induced bone marrow suppression in tumor-bearing mice (routine blood test). The format is in vivo, Kunming mice. The settings on record: after 10 days once daily, docetaxel 75 mg/m^2/d iv, Tegafur/Gimeracil/Oteracil capsules 222.2 mg/m^2/d intragastric, icaritin 10 mg/kg/d iv. As to the method: Mice ascites tumor s180 cells were conventionally incubated in 1640 culture medium, at 37° C., 5% CO2, and passaged once every two days in average. The cells in the logarithmic growth phase were prepared into a single-cell suspension having a density of 3.0×10^7 cells/ml with normal saline, which was injected into the abdominal cavities of mice under sterile conditions. Seven days after inoculation, significant swelling of the abdominal cavities of mice can be seen. As this time, the mice were executed by cervical vertebra luxation, put into a beaker containing 75% ethanol and soaked for 2-3 minutes. The sterilized mice were placed into an ultraclean bench, and the abdomens were exposed. The ascites was drawn with a sterile syringe and put into a sterile reagent bottle for further use. The above ascites was counted with trypan blue, diluted with normal saline to adjust to 2.0×10^7 cells/ml, and inoculated at the right armpit of the mice with 0.2 ml for each mouse. The inoculated mice were randomly divided into 6 groups, with 10 animals in each group and half male and half female. Group 1, the model control group: the test animals were intraperitoneally injected with0.9% normal saline (same for the following experiments); Group 2, the docetaxel group: 75 mg/m^2/d of docetaxel; Group 3, the Tegafur, Gimeracil and Oteracil Potassium Capsules group: 222.2 mg/m^2/d of Tegafur, Gimeracil and Oteracil Potassium Capsules; Group 4, the icaritin group: 10 mg/kg/d of the icaritin microemulsion formulation; Group 5, the D+I group (docetaxel+icaritin group): 75 mg/m^2/d of docetaxel+[…] of icaritin; Group 6, the T +I group (Tegafur, Gimeracil and Oteracil Potassium Capsules+icaritin group): 222.2 mg/m^2/d of Tegafur, Gimeracil and Oteracil Potassium Capsules+10 mg/kg/d of icaritin. Docetaxel and icaritin were administered by tail intravenous injection with an administration volume of 10 ml/kg for each. Tegafur, Gimeracil and Oteracil Potassium Capsules was intragastrically administered with an administration volume of 40 ml/kg. Each group was administered once a day for totally 10 days. During the test, the animals were observed every day for their food and water uptake, survival conditions and behaviors, and measured for their body weights every day. After the test was ended, the mice were anaesthetized and anatomized. Blood was collected from abdominal aorta for routine blood test, and the total number of white blood cells, the total number of platelets and the total number of neutrophils were determined.

In data set [3] the test system is normal mice. Briefly: Bleeding time in normal mice (tail tip cut). The class given is in vivo, Kunming mice. More on the design: unit not given here. The settings on record: 2 mg/kg by injection, 3 days, 1 h after last administration. The procedure:
100 Kunming mice were randomly divided into 5 groups, i.e. the blank control group (normal saline group), the icariin group (positive control group), the high-dose icaritin group, the medium-dose icaritin group, and the low-dose icaritin group. Each group was administered as follows. Blank control group: administered with the same volume of normal saline by subcutaneous injection; Icariin group: administered with 2 mg/kg of icariin by injection; High-dose icaritin group: administered with the injection of icaritin of Example 1 by subcutaneous injection at a dosage of 10 mg/kg; Medium-dose icaritin group: administered with the injection of icaritin of Example 1 by subcutaneous injection at a dosage of 5 mg/kg; Low-dose icaritin group: administered with the injection of icaritin of Example 1 by subcutaneous injection at a dosage of 1 mg/kg. Measurement of the bleeding time: The normal saline group (blank control group), the icariin group (positive control group), and the icaritin administration groups (high-, medium-, and low-dose groups) were designed as follows: 50 mice were selected, weighed, and randomly divided into 5 groups, with 10 mice in each group. The animals were administered consecutively for 3 days. At 1 h after the last administration, a filter paper was rolled to form a filter paper cartridge with a diameter similar to that of the mouse body, which was closed at one end. The mouse was allowed to climb into the cartridge. Then about 3 mm of tail tip of the mouse was cut with scissors. A stopwatch was started to record the time when the bleeding started. The tail tip of the mouse was point-contacted with a filter paper gently every 15 s until there was no blood or no blood can be seen.

The test system of data set [4] is active immune thrombocytopenia mice. Briefly: Active immune thrombocytopenia in mice (platelets in peripheral blood). The settings on record: 2 mg/kg (table), intragastric once a day, x ± s. The class given is in vivo, Balb/C mice. The procedure:
72 Balb/C mice were selected, weighed, and randomly divided into […] administration groups, i.e. the normal group, the model control group, the icariin group (positive control group), and the icaritin administration groups (high-, medium-, and low-dose groups), with 12 mice in each group. […] On the second day after the model was established, each group was administered with the following therapeutic agents: The normal group: administered intragastrically with the same volume of normal saline; The model control group: administered intragastrically with the same volume of normal saline; The […]: […]; The high-dose icaritin group: […] Example 9; The medium-dose icaritin group: […] Example 9; The low-dose icaritin group: […] Each of the administration groups was administered once a day and fed normally. After establishing the model three times, each administration group was continued to be administered for one week. The mice were anesthetized, and blood was sampled to measure the number of platelets and determine the effect of icaritin on the number of platelets (PLT) in the peripheral blood.

Data set [5] concerns normal mice. Briefly: Clotting time in normal mice (capillary method). More on the design: unit not given here. The settings on record: 2 mg/kg by injection, 3 days, 1 h after last administration. The class given is in vivo, Kunming mice. As to the method:
100 Kunming mice were randomly divided into 5 groups, i.e. the blank control group (normal saline group), the icariin group (positive control group), the high-dose icaritin group, the medium-dose icaritin group, and the low-dose icaritin group. Each group was administered as follows.
Blank control group: administered with the same volume of normal saline by subcutaneous injection;
Icariin group: administered with 2 mg/kg of icariin by injection;
High-dose icaritin group: administered with the injection of icaritin of Example 1 by subcutaneous injection at a dosage of 10 mg/kg;
Medium-dose icaritin group: administered with the injection of icaritin of Example 1 by subcutaneous injection at a dosage of 5 mg/kg;
Low-dose icaritin group: administered with the injection of icaritin of Example 1 by subcutaneous injection at a dosage of 1 mg/kg.
Measurement of the clotting time: The normal saline group (blank control group), the icariin group (positive control group), and the icaritin administration groups (high-, medium-, and low-dose groups) were designed as follows: 50 mice were selected, weighed and randomly divided into 5 groups, with 10 mice in each group. The animals were administered consecutively for 3 days. At 1 h after the last administration, blood was sampled from the venous plexus by inserting a disposable 20 μl blood collection tube into the inner canthus of the mouse to collect 20 μl of blood. A small fragment of capillary was broken off every 15 s for checking the occurrence of clotting filaments. The time from the blood sampling to the occurrence of fibrous protein filaments (clotting time) was recorded, and the results were shown in Table 5.

The test system of data set [6] is model of thrombocytopenia induced by cyclophosphamide in mice. Nature of the data set: Thrombocytopenia induced by cyclophosphamide in mice (platelets in peripheral blood). The format is in vivo, Balb/C mice. The settings on record: cyclophosphamide 50 mg/kg ip model mice; 2 mg/kg sc once a day, 3 weeks; x ± s. As to the method: 72 Balb/C mice were selected, weighed, and randomly divided into 6 groups, i.e. the normal group, the model control group, the icariin group (positive control group), and the icaritin administration groups (high-, medium-, and low-dose groups), with 12 mice in each group. […] One week before starting to establish the model, each group was administered with the following therapeutic agents:
The normal group: administered subcutaneously with the same volume of normal saline;
The model control group: administered subcutaneously with the same volume of normal saline;
(§1) The icariin group: administered by subcutaneous injection with 2 mg/kg of icariin;
(§2) The high-dose icaritin group: administered by subcutaneous injection with 10 mg/kg of the icaritin injection of Example 11;
(§3) The medium-dose icaritin group: administered by subcutaneous injection with 5 mg/kg of the icaritin injection of Example 11;
(§4) The low-dose icaritin group: administered by subcutaneous injection with 1 mg/kg of the icaritin injection of Example 11.
Each group was administered once a day and fed normally. After consecutive administration for 3 weeks, the mice were anesthetized, and blood was sampled to measure the number of platelets and determine the effect of icaritin on the number of platelets (PLT) in the peripheral blood.

The next data set deals with chronic ITP model rats. Briefly: Platelet count in chronic ITP model rats (anti-rat platelet serum). The settings on record: 2 mg/kg sc, 1 h after last administration. The class given is in vivo, Wistar rats. The procedure:
Establishment of chronic ITP model: Wistar rats were selected to establish the model by injecting rabbit anti-rat platelet serum (APS). […] 50 Rats in which the model was successfully established were selected, weighed, and randomly divided into 5 groups, i.e. the model control group, the icariin group (positive control group), and the icaritin administration groups (high-, medium- and low-dose groups), with 10 rats in each group. The groups were administered with the following therapeutic agents, respectively.
The model control group: administered by subcutaneous injection with the same volume of normal saline;
as §1, §2, §3, §4
At 1 h after the last administration, blood was sampled from the venous plexus by inserting a disposable 20 μl blood collection tube into the inner canthus of the […].

Marks after values point to notes of the source that are not given here.

With `CC(=O)O[C@@]12CO[C@@H]1C[C@H](O)[C@@]1(C)C(=O)[C@H](O)C3=C(C)[C@@H](OC(=O)[C@H](O)[C@@H](NC(=O)OC(C)(C)C)c4ccccc4)C[C@@](O)([C@@H](OC(=O)c4ccccc4)[C@H]21)C3(C)C` [Docetaxel, reference compound], the “Body weight Before Administration” value in data set [1] was determined as 21.2 ± 1.8 g. Besides, in data set [2], the Neutrophils is 0.670 ± 0.12 10^9/L, the Platelets was 450.6 ± 30.5 10^9/L and the White blood cells was 2.773 ± 0.46 10^9/L.

For `COc1ccc(-c2oc3c(CC=C(C)C)c(O[C@@H]4O[C@H](CO)[C@@H](O)[C@H](O)[C@H]4O)cc(O)c3c(=O)c2O[C@@H]2O[C@@H](C)[C@H](O)[C@@H](O)[C@H]2O)cc1` [Icariin, reference compound], in the data set on normal mice [3], the “Bleeding Time” value was 4.03 ± 0.45. The PLT in data set [4] is reported as 850.6 ± 90.1** 10^9/L; in data set [6] it was 550.6 ± 90.1** 10^9/L. Besides, in the data set on normal mice [5], the “Clotting Time” value was found to be 4.28 ± 0.61. Further, the Platelet count with chronic ITP model rats is reported as 571.8 ± 60.6 ×10^9.

On to “Tegafur, Gimeracil and Oteracil Potassium Capsules”, for which the “Body weight Before Administration” value in data set [1] is on record as 21.3 ± 2.3 g.
